Assay results reported in patent US3949075A, “Anti-microbial compounds of 2', 4' substituted anilides of substituted nitrosalicylic acid for quadruped animals” (Ferro Corporation, priority 1974, dated 1976).
Like-named read-outs stand apart in the source and are kept apart here.

Assays:
[1] = tested on: sheep; assay: Tolerance / toxicity in sheep; assay type: in vivo; design: key to Tolerance at 100 mg/kg / Tolerance at 50 mg/kg: "toxic" refers to death of sheep resulting from the use of the indicated compound at the indicated dosage; key to Tolerance: Tol.: tolerated; Tox.: toxic; Sym.: symptoms of toxic reaction
Protocol: (§1) The results of tests on sheep in a manner described, supra, using compounds of the present invention are given in Table 1, Examples 5 through 13. The numbers in the column headed "Haemonchus (15 mg/kg)" refer to the percent of parasites destroyed or expelled when the indicated compound was introduced into the rumen of sheep at a dosage of 15 milligrams per kilogram of body weight. The values under "Tolerance (mg/kg)" refer to the highest test dosage in the milligrams of anthelmintic per kilogram of body weight at which the sheep developed no toxic symptoms. "Tol." is an abbreviation for "tolerated". The symbols R1 and R2 refer to those of Formula I in these and other following examples.
(§2) The importance of the 2',4' substitution on the anilide moiety of Formula I is illustrated by the case of the dichloro substitution as summarized in Table III. […] This has been mentioned briefly hereinabove. As used herein, "toxic" refers to death of sheep resulting from the use of the indicated compound at the indicated dosage.
(§3) The data of the tables were generated using procedures previously described. The compounds tested are disubstituted and, except for Example 50 which is dibromo, are dichloro. Where the position for the substituents is other than 2' and 4', it is indicated. Under the indicated microorganisms, the values given in this and the following tables, should be read as: percentage of microorganism killed/dose in milligrams per kilogram of body weight. Under "Tolerance", the term "Tol." means "tolerated", "Tox." means "toxic", and "Sym." means "symptoms of toxic reaction", all at the dosage value which follows. It will be appreciated that there is no sharp toxicity end point in determining toxicity to living sheep.

[2] = Tolerance / toxicity in sheep; assay type: in vivo; design: key to Tolerance at 100 mg/kg / Tolerance at 50 mg/kg: "toxic" refers to death of sheep resulting from the use of the indicated compound at the indicated dosage; key to Tolerance: Tol.: tolerated; Tox.: toxic; Sym.: symptoms of toxic reaction; conditions: in vivo, Table 1, read-out: Tolerance, highest test dosage at which the sheep developed no toxic symptoms
Protocol: as §1, §2, §3

[3] = tested on: Fasciola hepatica; assay: Test for activity against liver flukes, Fasciola hepatica, in infected sheep; assay type: in vivo; conditions: for inhibition in vivo at 1 mg/kg: Tables VIII and X
Protocol: (§4) Test for activity against liver flukes were conducted as follows:
(§5) Eggs of Fasciola hepatica were collected from the bile of donor sheep. The eggs were embryonated and snails were infected (the genus Lymnaea serves as intermediate host) to produce Metacercariae which are the infective forms for sheep. Each sheep was infected with 250 metacercariae intraruminally. When the infection became patent in ca. 80 days, egg counts were carried out to determine the degree of worm burden. The liver was processed to recover F. hepatica in the untreated and treated sheep.
as §3

[4] = tested on: Haemonchus contortus; assay: Percent of Haemonchus destroyed or expelled in infected sheep (egg count after treatment); assay type: in vivo, Haemonchus contortus (in sheep); conditions: for Haemonchus (2 mg/kg), percent of parasites destroyed or expelled / Haemonchus (15 mg/kg), percent of parasites destroyed or expelled / Haemonchus (5 mg/kg), percent of parasites destroyed or expelled: into rumen, Table 1
Protocol: Two groups of sheep were used in the tests. One group was used as a non-medicated control, while the other group was treated with the compound under investigation. Helminth-free young lambs were infected with about 10,000 filariform larvae of Haemonchus contortus. In three weeks when the infection became apparent, egg counts were made to determine the density of the worm burden.
The egg count was carried out using the following modified Stoll method. Three grams of sheep feces were taken rectally from each animal and placed in a Stoll flask. To each flask, tap water was added to the top line. The fecal pellets were too hard to break down, the flasks were closed with rubber stoppers and kept in the refrigerator for several hours. The flasks were thoroughly shaken and a 1 ml. sample was drawn from the middle using a wide mouth pipette. This 1 ml. sample was transferred to an 8 ml. plastic tube, to which enough saturated sodium chloride solution was added to reach the rim. The tubes were then centrifuged for 10 minutes at 1500 r.p.m. Then sodium chloride solution was added with a medicine dropper forming a concave miniscus. A cover glass was carefully added and the tubes were kept in a refrigerator for ten to twenty minutes. During that period, the nematode ova flowed upward and adhered to the bottom of the cover glass slip. At the end of the 20-minute period, the cover slip was carefully detached from the miniscus and transferred to a microscopic slide. The ova were then counted under a microscope equipped with 10X ocular and 10X objective lens. Each ovum under the microscope represented 20 ova in the sample.
Animals with sufficiently high egg counts were taken out of the pool and housed in experimental pens. Since the salicylanilides of the present invention are water insoluble, the compounds were first ground using a mortar and pestle and then were placed in a carboxymethyl cellulose solution. The particles were further micronized ultrasonically. The compound was then administered to two or three animals by Oesophageal gavage. Control, untreated animals, received only the carboxymethyl cellulose solution in a similar manner. On the sixth and seventh day after treatment, fecal pellets were taken from the rectum of the control as well as the treated animals and egg counts were made.
as §1, §3

[5] = tested on: Haemonchus and Fasciola hepatica; assay: Dual activity against Haemonchus and Fasciola in sheep and therapeutic ratio; assay type: in vivo; conditions: sheep; for dual activity relative to other isomers, in words: Table IX, listed as methyl 2'; for overall activity ranking, in words: Table X
[6] = tested on: liver flukes of the genus Fasciola; assay: Utility against liver flukes of the genus Fasciola in sheep (oral); assay type: in vivo; conditions: for effect against liver flukes: 15 mg/kg
Protocol: as §4, §5
The compounds of this invention also have utility against liver flukes.

[7] = Fasciola hepatica, read-out: Fasciola hepatica, percentage of microorganism killed
[8] = Fasciola hepatica, sheep, Tables VIII-XI, read-out: Fasciola hepatica, percentage of microorganism killed
[9] = Haemonchus contortus, iv, sheep, 15 mg/kg, Tables III and IV, read-out: Effectiveness (%) at 15 mg/kg
[10] = Haemonchus contortus, sheep, Tables VIII-XI, read-out: Haemonchus, percentage of microorganism killed
[11] = Haemonchus contortus, sheep, 15 mg/kg, Tables VIII-XI, read-out: Haemonchus, percentage of microorganism killed
[12] = sheep, 5 mg/kg, Tables III and IV
[13] = Fasciola hepatica, sheep, 15 mg/kg, Tables VIII-XI, read-out: Fasciola hepatica, percentage of microorganism killed
[14] = Fasciola hepatica, sheep, read-out: Fasciola hepatica, percentage of microorganism killed
[15] = Fasciola hepatica, sheep, 2 mg/kg, Tables VIII-XI, read-out: Fasciola hepatica, percentage of microorganism killed
[16] = Haemonchus contortus, sheep, 5 mg/kg, Tables VIII-XI, read-out: Haemonchus, percentage of microorganism killed

SMILES	Tolerance ([1]; 25 mg./kg., Tables IX, X)	Tolerance ([1]; 50 mg./kg., Tables VIII-X)	Tolerance at 50 mg/kg ([1]; 50 mg/kg, Tables III and IV)	NOAEL [2]	inhibition in vivo at 5 mg/kg [3, 8]	inhibition in vivo at 15 mg/kg [4, 9]	inhibition in vivo at 2 mg/kg [4, 10]	inhibition in vivo at 15 mg/kg [4, 11]	Effectiveness (%) at 5 mg/kg [4, 12]	Haemonchus (2 mg/kg), percent of parasites destroyed or expelled ([4]; sheep)	Haemonchus (15 mg/kg), percent of parasites destroyed or expelled ([4]; sheep, 15 mg/kg)	inhibition in vivo at 15 mg/kg [3, 13]	effect against liver flukes [6]	inhibition in vivo at 1 mg/kg [3, 14]	inhibition in vivo at 2 mg/kg [3, 15]	inhibition in vivo at 5 mg/kg [4, 16]	Haemonchus (5 mg/kg), percent of parasites destroyed or expelled ([4]; sheep, 5 mg/kg)	overall activity ranking, in words [5]	further results
Cc1cc(Cl)ccc1NC(=O)c1c(C)c([N+](=O)[O-])cc(C(C)(C)C)c1O [Example 6, 3-tert. butyl-4'-chloro-2', 6-dimethyl-5-nitrosalicylanilide]	Tol.	Sym.	non toxic	50 to 100 mg/kg	100%	100%	67%	100%	95%	67%	100%	–	–	–	–	–	–	–	Tolerance ([1]; 100 mg./kg., Tables VIII, IX): Tox.; Tolerance at 100 mg/kg ([1]; 100 mg/kg, Tables III and IV): toxic; inhibition in vivo at 2 mg/kg [3, 7]: 0%; inhibition in vivo at 5 mg/kg ([4]; Haemonchus contortus, read-out: Haemonchus, percentage of microorganism killed, sheep, 5 mg/kg, Tables VIII-XI): 99%; activity against Haemonchus relative to other isomers, in words ([4]; sheep): greater activity against Haemonchus; Effectiveness at 15 mg/kg against Haemonchus ([4]; sheep, 15 mg/kg, Table VI): 100%; effective in killing or expelling Haemonchus ([4]; sheep, dose not given): 100%; dual activity relative to other isomers, in words ([5]; chloro 4' compound): much greater dual activity; dual activity relative to other isomers, in words ([5]; chloro 4' isomer): very active at doses well below those at which other isomers are inactive; effect against (mature) liver flukes ([6]; oral, 5 mg/kg, within three days): The same effects against mature flukes
Cc1c(Cl)cccc1NC(=O)c1c(C)c([N+](=O)[O-])cc(C(C)(C)C)c1O [Example 28, 3-tert. butyl-3'-chloro 2', 6-dimethyl-5-nitrosalicylanilide]	–	Tox.	toxic	–	–	87%	–	87%	–	–	–	0%	ineffective against liver flukes	–	–	–	–	–	–
Cc1c([N+](=O)[O-])cc(C(C)(C)C)c(O)c1C(=O)Nc1ccc(Cl)cc1C(F)(F)F [Example 13]	Tox.	Tox.	–	≥ 15 mg/kg	–	–	96%	100%	–	96%	100%	–	–	100%	100%	91%	91%	most active compounds of the invention	Tolerance ([1]; 15 mg./kg., Tables VIII, X): Tol.; inhibition in vivo at 1 mg/kg ([4]; Haemonchus contortus, sheep, 1 mg/kg, Table X, read-out: Haemonchus, percentage of microorganism killed): 76%
Cc1c([N+](=O)[O-])cc(C(C)(C)C)c(O)c1C(=O)Nc1ccc(Br)cc1C(F)(F)F [Example 11]	–	–	–	≥ 20 mg/kg	100%	–	99.8%	–	–	99.8%	–	–	–	100%	100%	100%	100%	most active compounds of the invention	Tolerance ([1]; 20 mg./kg., Table X): Tol.; Tolerance ([1]; 35 mg./kg., Table X): Tol.; Tolerance, highest test dosage at which the sheep developed no toxic symptoms ([1]; Table 1, listed as 12): ≥ 35 mg/kg; inhibition in vivo at 0.5 mg/kg ([3]; Fasciola hepatica, sheep, 0.5 mg/kg, Table X, read-out: Fasciola hepatica, percentage of microorganism killed): 97%
Cc1c([N+](=O)[O-])cc(C(C)(C)C)c(O)c1C(=O)Nc1ccc(C(F)(F)F)cc1 [Example 10, 3-tert. butyl-6-methyl-5-nitro-4'-trifluoromethylsalicylanilide]	–	–	–	15 to 50 mg/kg	–	–	–	100%	–	–	100%	100%	efficacious	–	–	–	–	–	inhibition in vivo at 15 mg/kg ([4]; Haemonchus contortus, sheep, 15 mg/kg, Table V, read-out: Effectiveness at 15 mg/kg against Haemonchus): 100%
Cc1c([N+](=O)[O-])cc(C(C)(C)C)c(O)c1C(=O)Nc1cc(Cl)ccc1Cl [Example 24, reference compound]	–	Tol.	toxic	–	0%	100%	–	–	61%	–	–	–	–	–	–	61%	–	–	toxic effects at 50 mg./kg. ([1]; 50 mg/kg): shows toxic effects; inhibition in vivo at 15 mg/kg [3, 7]: 100%; activity against Fasciola, in words ([3]; sheep): no activity; inhibition in vivo at 15 mg/kg ([4]; Haemonchus contortus, read-out: Haemonchus, percentage of microorganism killed, sheep, 15 mg/kg, Tables VIII-XI): 100%; activity at 5 mg./kg. ([4]; sheep, 5 mg/kg): 61%; clinical effectiveness against either parasite, in words ([5]; 5 mg./kg.): would not be clinically effective against either parasite
